Experiments:
[1] = tested on: Russet Burbank potatoes; experiment: Sprout inhibition of stored Russet Burbank potatoes (second trial, 46 degrees F.), thermal fogs and liquid sprays; format: in vivo, Solanum tuberosum
Text: (§1) The storage system was designed to duplicate a large commercial storage facility in miniature. Drums containing 150-200 pounds of potatoes were sealed and housed in a building in which temperature was maintained throughout the testing period at 54 degrees F. for the first summer trial with Norkotah potatoes and 46 degrees F. for the Russet Burbank potatoes in the second trial. During both trials the humidity was maintained at […]. Formed in each drum is an inlet in which untreated air (ventilation air) was introduced under a perforated floor to the drum. The ventilation air moves through the pile of potatoes and is exhausted from the top of the drum to the outside of the building.
(§2) This storage ventilation was shut down for a 24 hour duration during and directly after the treatment of the chemicals. Then it is maintained for the duration of the trial, with ventilation air forced through the drums at a rate of 0.5 cubic feet per minute on a three-hour on and a three-hour off schedule.
(§3) In the spray application technique the formulations were mixed with water and sprayed on the newly harvested tubers at a rate of 5 and 10 parts per million (weight of the active to weight of the potatoes) mixed in a water carrier. The mixture was applied at 1 quart per ton of potatoes. The spray was applied via a hand held spray gun propelled with compressed air as the tubers were rotating in a cement mixer drum. This insured that all surface area is coated with the active ingredient.
(§4) The custom thermal fogger's heat source was an electric hot plate set at 500 degrees F. This temperature is monitored throughout the application with a thermal couple that is inserted in a cavity just below the surface where the chemical is placed. A chamber was attached to the hot plate. A fan was mounted to the top of the chamber. The fogger was attached to the storage container with flexible tubing.
(§5) The fog was delivered to each drum through separate ports. Through the bottom port of the storage drum a perforated stinger was installed that runs the length of the drum. Flexible tubing delivered the fog air mixture from the fogger. The fog air mixture was returned to the thermal fogger through a second flexible tubing that was attached from the top of the storage drum to the bottom of the thermal fogger. The air fog mixture was re-circulated through the system for five minutes.
Russet Burbank potatoes were selected for the second trial. The Russet Burbank is noted for its long term storability and is one of the most popular cultivars used for storage as it can be used as both a fresh pack potato and also has very desirable processing qualities.
(§6) The potatoes were monitored for sprout activity on a regular basis after treatment. When early sprout activity was observed the potatoes were first evaluated. Then at approximately 30 day intervals, 60 tubers were randomly selected from each treatment. Each tuber was rated for the length of the longest sprout on each tuber. The scale used for the rating system as is follows: • 0—Not Peeping=no sprout or swelling of eye tissue evident. • 1—Peeping=swelling of eye tissue up to a sprout length of 3 mm • 2—sprout length from 3 mm to 1 cm. • 3—sprout length from 1 cm to 3 cm. • 4—sprout length from 3 cm to 5 cm. • 5—sprout length from 5 cm and longer
(§7) Results of each set of 60 tubers were recorded into 6 subsets of 10 tubers each (replicates). Each set is summarized as a percent. The data is also summarized into AVERAGE SPROUT LENGTH and PERCENT OK RE: FRESHPCK (Fresh pack).
(§8) The PERCENT OK RE: FRESHPCK is the percent of the tubers that are NOT PEEPING and PEEPING categories combined together.
(§9) The MCPP spray was a MCPP potassium salt providing 2.5 pounds active ingredient per gallon of inert ingredients (water/coformulants). […]

[2] = tested on: Russet Norkotah potatoes; experiment: Sprout inhibition of stored Russet Norkotah potatoes (first trial, 54 degrees F.); format: in vivo, Solanum tuberosum
Text: as §1, §2, §3
All of the treatments in the reported test on Russet Norkotah used this technique with the exception of Untreated and CIPC A (CIPC 98A) that was thermal fogged.
as §4, §5
Russet Norkotah potatoes were selected for the first trial for their short natural dormancy and aggressive sprouting.
as §6, §7, §8, §9

[3] = Concentration analysis: amounts recovered on the whole potato; conditions: thermal fog application
Text: Much better results were obtained with the spray applications compared to the thermal fog applications of MCPP, believed to be due to the fact that we established a higher concentration on the tuber via spray.
For example, for spray and thermal fog application, amounts recovered on the whole potato approximately four months later were as follows: MCPP10 ppm applied via thermal fog=0.038 ppm MCPP10 ppm applied via liquid spray=6.3 ppm

[4] = 5 ppm Fog, 132 days after harvest
[5] = 5 ppm Fog, 161 days after harvest
[6] = 5 ppm Fog, 191 days after harvest
[7] = 5 ppm Fog, 223 days after harvest
[8] = 5 ppm Fog, 252 days after harvest
[9] = 5 ppm Fog, 283 days after harvest
[10] = 5 ppm Spray, 132 days after harvest
[11] = 5 ppm Spray, 161 days after harvest
[12] = 5 ppm Spray, 191 days after harvest
[13] = 5 ppm Spray, 223 days after harvest
[14] = 5 ppm Spray, 252 days after harvest
[15] = 5 ppm Spray, 283 days after harvest
[16] = 11 ppm Fog, 132 days after harvest
[17] = 11 ppm Fog, 161 days after harvest
[18] = 11 ppm Fog, 191 days after harvest
[19] = 11 ppm Fog, 223 days after harvest
[20] = 11 ppm Fog, 252 days after harvest
[21] = 11 ppm Fog, 283 days after harvest

Compound	% OK For Fresh Pack Dormant + sprout up to 3 mm [1, 4] [%]	% OK For Fresh Pack Dormant + sprout up to 3 mm [1, 5] [%]	% OK For Fresh Pack Dormant + sprout up to 3 mm [1, 6] [%]	% OK For Fresh Pack Dormant + sprout up to 3 mm [1, 7] [%]	% OK For Fresh Pack Dormant + sprout up to 3 mm [1, 8] [%]	% OK For Fresh Pack Dormant + sprout up to 3 mm [1, 9] [%]	% OK For Fresh Pack Dormant + sprout up to 3 mm [1, 10] [%]	% OK For Fresh Pack Dormant + sprout up to 3 mm [1, 11] [%]	% OK For Fresh Pack Dormant + sprout up to 3 mm [1, 12] [%]	% OK For Fresh Pack Dormant + sprout up to 3 mm [1, 13] [%]	% OK For Fresh Pack Dormant + sprout up to 3 mm [1, 14] [%]	% OK For Fresh Pack Dormant + sprout up to 3 mm [1, 15] [%]	% OK for Fresh Pack Dormant + sprout up to 3 mm ([2]; 5 ppm Spray, 53 DAH) [%]	% OK for Fresh Pack Dormant + sprout up to 3 mm ([2]; 5 ppm Spray, 85 DAH) [%]	% OK for Fresh Pack Dormant + sprout up to 3 mm ([2]; 5 ppm Spray, 107 DAH) [%]	% OK for Fresh Pack Dormant + sprout up to 3 mm ([2]; 10 ppm Spray, 53 DAH) [%]	% OK for Fresh Pack Dormant + sprout up to 3 mm ([2]; 10 ppm Spray, 85 DAH) [%]	% OK for Fresh Pack Dormant + sprout up to 3 mm ([2]; 10 ppm Spray, 107 DAH) [%]	% OK For Fresh Pack Dormant + sprout up to 3 mm [1, 16] [%]	% OK For Fresh Pack Dormant + sprout up to 3 mm [1, 17] [%]	other results
O=C(O)COc1ccc(Cl)cc1Cl [2,4 D Acid, (2,4-(dichlorophenoxy)-acetic acid, reference compound]	100.0	16.7	0.0	0.0	0.0	0.0															
CCCCC(CC)COC(=O)COc1ccc(Cl)cc1Cl (stereo not shown) [2,4 D LV, Isooctyl (2-ethylhexyl) ester of 2,4-Dichlorphenoxyacetic acid]							96.7	30.0	8.3	0.0	0.0	0.0									
O=C(O)CCCOc1ccc(Cl)cc1Cl [2,4 DB]													81.7	3.3	0.0	91.7	11.7	0.0			
CC(C)OC(=O)Nc1cccc(Cl)c1 [CIPC 98A, isopropyl 3-chlorophenylcarbamate, reference compound]																			100.0	26.7	% OK for Fresh Pack Dormant + sprout up to 3 mm ([2]; 16.6 ppm Fog, 53 DAH): 100.0%; % OK for Fresh Pack Dormant + sprout up to 3 mm ([2]; 16.6 ppm Fog, 85 DAH): 86.7%; % OK for Fresh Pack Dormant + sprout up to 3 mm ([2]; 16.6 ppm Fog, 107 DAH): 86.7%; % OK For Fresh Pack Dormant + sprout up to 3 mm [1, 18]: 0.0%; % OK For Fresh Pack Dormant + sprout up to 3 mm [1, 19]: 0.0%; % OK For Fresh Pack Dormant + sprout up to 3 mm [1, 20]: 0.0%; % OK For Fresh Pack Dormant + sprout up to 3 mm [1, 21]: 0.0%; % OK For Fresh Pack Dormant + sprout up to 3 mm ([1]; 16.6 ppm Fog, 132 days after harvest): 100.0%; % OK For Fresh Pack Dormant + sprout up to 3 mm ([1]; 16.6 ppm Fog, 161 days after harvest): 26.7%; % OK For Fresh Pack Dormant + sprout up to 3 mm ([1]; 16.6 ppm Fog, 191 days after harvest): 0.0%; % OK For Fresh Pack Dormant + sprout up to 3 mm ([1]; 16.6 ppm Fog, 223 days after harvest): 0.0%; % OK For Fresh Pack Dormant + sprout up to 3 mm ([1]; 16.6 ppm Fog, 252 days after harvest): 0.0%; % OK For Fresh Pack Dormant + sprout up to 3 mm ([1]; 16.6 ppm Fog, 283 days after harvest): 0.0%
Cc1cc(Cl)ccc1OC(C)C(=O)O (stereo not shown) [MCPP, 2-(4-Chloro-2-methylphenoxy)propanoic acid]	93.3	3.3	0.0	0.0	0.0	0.0	100.0	95.0	73.3	38.3	6.7	5.0	98.3	53.3	1.7	100.0	71.7	25.0			% OK For Fresh Pack Dormant + sprout up to 3 mm ([1]; 10 ppm Fog, 132 days after harvest): 100.0%; % OK For Fresh Pack Dormant + sprout up to 3 mm ([1]; 10 ppm Fog, 161 days after harvest): 15.0%; % OK For Fresh Pack Dormant + sprout up to 3 mm ([1]; 10 ppm Fog, 191 days after harvest): 0.0%; % OK For Fresh Pack Dormant + sprout up to 3 mm ([1]; 10 ppm Fog, 223 days after harvest): 0.0%; % OK For Fresh Pack Dormant + sprout up to 3 mm ([1]; 10 ppm Fog, 252 days after harvest): 0.0%; % OK For Fresh Pack Dormant + sprout up to 3 mm ([1]; 10 ppm Fog, 283 days after harvest): 0.0%; % OK For Fresh Pack Dormant + sprout up to 3 mm ([1]; 10 ppm Spray, 132 days after harvest): 100.0%; % OK For Fresh Pack Dormant + sprout up to 3 mm ([1]; 10 ppm Spray, 161 days after harvest): 100.0%; % OK For Fresh Pack Dormant + sprout up to 3 mm ([1]; 10 ppm Spray, 191 days after harvest): 90.0%; % OK For Fresh Pack Dormant + sprout up to 3 mm ([1]; 10 ppm Spray, 223 days after harvest): 65.0%; % OK For Fresh Pack Dormant + sprout up to 3 mm ([1]; 10 ppm Spray, 252 days after harvest): 20.0%; % OK For Fresh Pack Dormant + sprout up to 3 mm ([1]; 10 ppm Spray, 283 days after harvest): 10.0%; stability when exposed to heat [3]: break down rapidly when exposed to heat
Diisopropylnaphthalene [DIPN, reference compound]																			56.7	15	% OK For Fresh Pack Dormant + sprout up to 3 mm [1, 18]: 0%; % OK For Fresh Pack Dormant + sprout up to 3 mm [1, 19]: 0%; % OK For Fresh Pack Dormant + sprout up to 3 mm [1, 20]: 0%; % OK For Fresh Pack Dormant + sprout up to 3 mm [1, 21]: 0%

Source: US20070078058A1, “Use of MCPP to inhibit tuber sprouting” (ACETO AGRICULTURAL CHEMICALS CORP., priority 2005, published 2007)
